Where “and” joins values, the source holds several entries; their conditions need not be identical. Equal entries are not always repeated. Structures can show the parent of a compound that is named as a salt. Where two headings read alike, the source gives them in different places.
Assays:
[1] = UV-vis absorption and fluorescence spectra of thio-caged and uncaged fluorophores; assay type: physicochemical; conditions: for λem / λabs: DMSO (50 μM); for λabs: absorption maxima
Experimental: Encouraged by the excellent photoactivation properties of SNile Red, Lawesson's reagent was employed to introduce thiocarbonyl moieties into several different fluorophores, such as phthalimide (PI), coumarin (Cou) and acridone (ACD), obtaining yields ranging from 20-80% (FIG. 1). Next, characterization of the spectroscopic and photochemical properties of these thiocaged fluorophores and their oxidized products using UV-vis and fluorescence spectroscopies was performed (Table 1). […] Double thiocarbonyl substitution on 4-dimethylaminophthalimide (4-DMAP, FIG. 1) produced an even larger bathochromic shift of 166 nm. […] It was hypothesized that the red-shift and enhanced absorption seen with thiocarbonyl compounds were due to the reduced energy gap between the HOMO-LUMO in these fluorophores. This is consistent with the computational results discussed below. […] To assess the efficiency of photoactivation for the various thio-caged fluorophores, UV-vis and fluorescence spectra were recorded after different irradiation times (FIGS. 4-8).
(§1) The ^1H NMR spectroscopic measurements were carried out using a Bruker-600 NMR at 600 MHz with tetramethysilane (TMS) as internal reference. Electrospray ionization (ESI) mass spectra were performed on a Bruker MicroToF ESI LC-MS System in positive-ion mode. The steady-state absorption spectra were obtained with a ThermoFisher Evolution 220 UV-Vis spectrophotometer in 1 cm path length quartz cells. Fluorescence spectra were recorded using spectrophotometer (SPEX FluoroLog-3). Quantum yield in DMSO was measured relative to the fluorescence of Rhodamine B (Φ=0.65) in ethanol or quinine sulfate (Φ=0.55) in 0.5 M·L^−1 H2SO4. FT-IR spectrum was taken on a PerkinElmer Spectrum 100 FT-IR Spectrometers. Confocal fluorescent images of living cells were performed using Nikon A1R-si Laser Scanning Confocal Microscope (Japan), equipped with lasers of 405/488/561/638 nm. STORM images were performed on a NSTORM (Nikon, Japan), featuring a CFI Apo TIRF 100× oil objective (NA 1.49) on an inverted Nikon Ti Eclipse microscope with a quad cube filter (Chroma, zt405/488/561/640 m-TRF), piezo stage, and Perfect Focus System (Nikon) for Z-stability. Light source are hand-held UV lamp, BlueView Transilluminator (470 nm centred, Vernier), Prior Lumen200 with 615/30 filter and 850 LED (Mouser Electronics).

[2] = Fluorescence quantum yield determination; assay type: physicochemical; conditions: DMSO; reference rhodamine B in ethanol or quinine sulfate in 0.5 M H2SO4
Experimental: as §1
Quantum yields were measured with Rhodamine B as reference (Φ=0.65) or quinine sulfate (Φ=0.55) in 0.5 M H2SO4. Fluorescence measurements were performed in 1 cm quartz cells with 5 μM samples in DMSO on spectrophotometer (SPEX FluoroLog-3) (slits 5×5). The fluorescence quantum yield, Φ (sample), were calculated according to equation as following:
[formula] Φ: quantum yield; I: integrated emission intensity; OD: optical density at the excitation wavelength; d: refractive index of solvents, dDMSO=1.478; dethanol=1.36; dwater=1.33.

[3] = Photoactivation (turn-on) of thio-caged fluorophores in solution by light irradiation; assay type: physicochemical; conditions: DMSO; footnote d: 615 nm, 0.4 μW cm^−2
From the text: To determine whether a minimal one atom sulfur-for-oxygen substitution within fluorophores can lead to fluorescence quenching, thio-caged Nile Red (SNile Red, FIG. 1) was synthesized, in which a carbonyl group was replaced with a thiocarbonyl moiety. Treatment of Nile Red with Lawesson's reagent in refluxing benzene produced the desired SNile Red in a yield of 40%. […] Irradiation of SNile Red with red light (615 nm, 0.4 μW cm-2) led to the regeneration of fluorescent Nile Red in a high yield (FIG. 2A). The absorption maxima of SNile Red at 298, 368 and 652 nm were blue-shifted after desulfuration to 315 and 556 nm, in a good agreement with the absorption spectrum of authentic synthesized Nile Red (FIG. 2B). The A556/A652 value, representing the ratio of the absorbance maxima of Nile Red and SNile Red, increased from 0.25 to 30 after desulfuration reaction (FIG. 2B). Upon irradiation with red light, the fluorescence intensity of the desulfurated material at 626 nm increased 280-fold, accompanied by a change in fluorescence from dark to red (FIG. 2C). To evaluate the proper light source for SNile Red photoactivation, SNile Red was irradiated with either 470 nm, 615 nm, or 850 nm light for different times and fluorescence intensities at 626 nm were recorded. […] To further characterize the photoactivated product of SNile Red, ^1H NMR and ESI-MS spectral changes were measured in the process of photoactivation (FIG. 2A). […] Signals corresponding to phenyl moiety protons at 8.64, 8.62, 7.85, 7.73, 7.36, 7.04, and 6.79 ppm gradually disappeared, and were replaced by new signals appearing at 8.57, 8.13, 7.81, 7.72, 7.63, 6.85, 6.69 and 6.30 ppm, respectively. […] The photoactivated product was also characterized by ESI-mass spectrometric analysis FIG. 3). The observed m/z 319.2 corresponding to Nile Red confirms the photoactivation product of SNile Red is its oxo form. Both dialkylthioketones and diarylthioketones are known to undergo photo-oxidation reaction under oxygen and light to give the corresponding ketones (Coyle, 1985, Corsaro and Pistara, 1998). To investigate the effects of dissolved oxygen and light on the photoactivation of thio-caged fluorophores, the time profile of the fluorescence of SNile Red was measured in the presence or absence of light, or oxygen. […] To study the effect of oxygen during the photoactivation, the inventors prepared an oxygen-free SNile Red solution by bubbling nitrogen gas and irradiated at 615 nm. […] Inspired by the photoactivation mechanism of thioketones, it was hypothesized that singlet oxygen generated by self-sensitization can be the active species to oxidize thiocarbonyl groups within fluorophores (Coyle, 1985 and Corsaro and Pistara, 1998). […] The singlet oxygen quantum yield (DA) was further determined to be 0.36 with considering the absorption correction factor over the 600-630 nm region (Bonacin et al., 2009 and Adarsh et al., 2010) by referring to methylene blue (MB) (ΦΔ,MB=0.57 in dichloromethane; Li et al., 2013).
Encouraged by the excellent photoactivation properties of SNile Red, Lawesson's reagent was employed to introduce thiocarbonyl moieties into several different fluorophores, such as phthalimide (PI), coumarin (Cou) and acridone (ACD), obtaining yields ranging from 20-80% (FIG. 1). Next, characterization of the spectroscopic and photochemical properties of these thiocaged fluorophores and their oxidized products using UV-vis and fluorescence spectroscopies was performed (Table 1). […] Double thiocarbonyl substitution on 4-dimethylaminophthalimide (4-DMAP, FIG. 1) produced an even larger bathochromic shift of 166 nm. […] It was hypothesized that the red-shift and enhanced absorption seen with thiocarbonyl compounds were due to the reduced energy gap between the HOMO-LUMO in these fluorophores. This is consistent with the computational results discussed below. […]

[4] = in dichloromethane; cited from earlier work
[5] = test system: H2B-Halo expressed CHO-K1 cells; experiment: Turn-on of 5NP-Halo in cells; assay type: cell-based; conditions: 10 μM for 1 h
From the text: FIGS. 19A & 19B show turn-on of 5NP-Halo in H2B-Halo expressed CHO-K1 cells.

[6] = cited from earlier work

Row | SMILES | λem [1] | ø (fluorescence quantum yield) [2] | λabs [1] | further results
1 | CN(C)c1ccc2nc3ccc(=[N+](C)C)cc-3sc2c1 [methylene blue] | – | – | – | singlet oxygen quantum yield (ΦΔ,MB) of reference [4]: 0.57
2 | O=c1c2ccccc2[nH]c2ccccc12 [ACD, acridone] | 406 nm and 428 nm and 455 nm | 0.64 | 361 nm and 379 nm and 398 nm | –
3 | O=C(CN1C(=S)c2cccc3c(N4CCCC4)ccc(c23)C1=S)NCCOCCOCCCCCCCl [Dye 5NP-Halo] | – | – | – | fluorescence upon photoactivation of treated cells [5]: enhanced fluorescence
4 | CCN(CC)c1ccc2nc3c4ccccc4c(=O)cc-3oc2c1 [Nile Red] | 626 nm | 0.46 | – | –
5 | CCN(CC)c1ccc2c(-c3ccccc3C(=O)O)c3ccc(=[N+](CC)CC)cc-3oc2c1.[Cl-] [Rhodamine B] | – | – | – | fluorescence quantum yield Φ of reference ([6]; in ethanol): 0.65
6 | C=C[C@H]1C[N@@]2CC[C@H]1C[C@H]2[C@H](O)c1ccnc2ccc(OC)cc12 [quinine sulfate] | – | – | – | fluorescence quantum yield Φ of reference ([6]; in 0.5 M H2SO4): 0.55
7 | CN(C)c1ccc2c(c1)C(=S)NC2=S [SDMAP] | 447 nm | <0.001 | 326 nm and 390 nm and 563 nm | Turn-on (x-fold) [3]: 1600^d x-fold

The next lines start with results.

Row | λem [1] | ø (fluorescence quantum yield) [2] | λabs [1] | SMILES | further results
8 | 294 nm | <0.001 | – | S=C1NC(=S)c2ccccc21 [Dye 2SPI] | Turn-on (x-fold) [3]: 30^d x-fold
9 | 505 nm | 0.09 | 267 nm and 325 nm and 397 nm | CN(C)c1ccc2c(c1)C(=O)NC2=O [DMAP, 4-dimethylaminophthalimide] | bathochromic shift of absorption maximum ([1]; double thiocarbonyl substitution versus carbonyl compound): 166 nm
10 | 409 nm and 427 nm and 463 nm | <0.001 | 430 nm and 456 nm | S=c1c2ccccc2[nH]c2ccccc12 [SACD] | Turn-on (x-fold) [3]: 180^d x-fold
11 | 347 nm | 0.001 | – | O=C1NC(=O)c2ccccc21 [OPI, phthalimide] | –
12 | 445 nm | 0.71 | – | O=c1ccc2ccccc2o1 [Cou, coumarin] | –

Source: patent publication US11913884B2, “Visible light-activated dyes and methods of use thereof” (William Marsh Rice University, priority 2019, dated 2024)
